Laboratory results reported in US20030087861A1, “Combined approach to treatment of cancer using a c-myc antisense oligomer” (priority 2001, published 2003).

What was measured:
[1] = system: Lewis lung carcinoma (LLC1) tumors; assay: Lewis lung carcinoma (LLC1) subcutaneous tumor model, tumor area growth and tumor mass; assay type: in vivo, C57BL/6J mice; set-up: Tumor Growth Rate (TGR): unit not given beside the values; conditions: for Tumor Mass (gm ± STE): LLC1 tumor bearing mice, IP dosing per Table 2, combinations in alternating regimen (chemotherapy days 2-4, 14-16; PMO days 6-12, 18-23), mass at euthanization; for Tumor Growth Rate (TGR): linear regression of change in tumor area day 14 to 25, slope ± standard deviation, IP dosing per Table 2, combinations in alternating regimen; for % of Saline TGR: tumor growth rate relative to saline group, combinations in alternating regimen; for antitumor effect / tumor growth (in words): single agent, or staggered (alternating) regimen with the PMO after chemotherapy
Experimental: Examples are described in Smith et al., 2000. The model is based on the transplantation of Lewis lung cells (LLC1), a highly tumorigenic lung carcinoma cell line, into syngeneic […] mice. LLC1 produce discernable tumors by day 4 when 200,000 cells are transplanted subcutaneously onto the right flanks of C57-BL mice. Therapeutic efficacy was evaluated based on daily caliper measurements of tumor length and width and tumor weights at the end of 25 day studies. A 20 base PMO antisense to c-myc mRNA (AVI-4126, SEQ ID NO:1) was evaluated for efficacy in the model. […] AVI-4126 was also administered i.p. (300 μg/mouse/day) in combination with chemotherapy. Co-administration of cisplatin (83 μg/mouse/day) on days 2-4 and 13-15 with AVI-4126 on days 2-8 and 13-19 had no additional effect on tumor growth inhibition versus cisplatin alone (Example 1).
Tumor cells. The Lewis lung cell line (LLC1) used in the studies described herein was derived from the Lewis lung carcinoma established in 1951 by Dr. M. R. Lewis and has been utilized for the evaluation of cancer chemotherapeutic agents Mayo, 1972; Bertram et al., 1980). Lewis lung carcinoma cells (ATCC, Manassas, Va.) were maintained in DMEF-12 medium supplemented with 10% fetal bovine serum, penicillin (100 units/mL), streptomycin (100 μg/mL), and amphotericin (0.25 μg/mL) at 37° C. in a 5% CO2/95% air humidified incubator. Cells were harvested as an approximately 70% confluent culture of log growth phase at the time of transplant and were injected as a cell suspension in media at a concentration of 200,000 cells per 100 μl injection.
Syngeneic mice. C57BL/6J mice (Simonsen, Gilroy, Calif.) weighing 22 to 24 g were housed in sterile plastic cages at the Laboratory Animal Resources Facility at Oregon State University (OSU), Corvallis, Oreg. Mice were given access to rodent chow (Harlan Teklad, Madison, Wis.) and tap water ad libitum and exposed to 12 hour light/dark cycles. All animal protocols conformed to the ethical guidelines of the 1975 Declaration of Helsinki and were approved by the ‘Institutional Animal Care and Use Committee’ of OSU.
Statistical Analysis. All data are reported as the mean ±SEM were determined by the computer program InStat2 (GraphPad, San Diego). The p values were calculated by InStat2 using ANOVA and the Tukey multiple comparison test. Graphs, linear regression, and slopes were generated using Prism v2.0 (GraphPad).
Tumor studies with AVI-4126 and Chemotherapy Following a 5 day acclimation period, C57BL/6J mice (Simonsen, Gilroy, CA) cared for as set forth above, were anesthetized with isoflurane, shaved, and injected subcutaneously in the right rear flank with approximately 200,000 viable LLC1 cells (study day 0). Injection sites were monitored daily to ensure that solid, homogeneous tumor growth was consistently obtained 4 days after LLC1 cell injection. Chemotherapy injections were prepared fresh daily before i.p injection (see Table 1). All PMO's and cisplatin (Sigma, St. Louis, Mo.) were dissolved in sterile, apyrogenic saline (Sigma) adjusted to an injection volume of 0.1 ml. A Taxol stock solution (6 mg/ml in Cremophore EL and ethanol, Bristol Myers Squibb, Syracuse, N.Y.) was diluted to 1 mg/ml in 1× PBS prior to injection. Etoposide (Sigma) stock solutions were prepared by dissolving in 70% ethanol at 11 mg/ml followed by dilution with saline to a final concentration of 5 mg/ml. 5-FU (Calbiochem) was dissolved in saline at a concentration of 12.5 mg/ml.
Animals were treated as described. Therapeutic efficacy was evaluated based on daily measurement of tumor area (length x width, cm^2) with digital calipers and tumor mass determined at the time of euthanization. Mice in all studies were euthanized by asphyxiation with CO2 on the final day of PMO treatments. […]

c-myc protein = assay: Immunoblot analysis of c-myc protein in LLC1 tumor lysates; assay type: in vivo, mouse; conditions: for effect on c-myc levels in tumor tissue (in words): compared to saline
Experimental: Immunoblot analysis of c-myc protein. All antibodies were obtained from Santa Cruz Biotechnology (Santa Cruz, Calif.). Three-hundred micrograms of LLC1 protein lysate was analyzed on a 5% SDS/acrylamide stacking gel with a 12% v/v sodium dodecylsulfate (SDS)/acrylamide separating gel. Gels were blotted, probed, and visualized according to standard Western blotting protocols. Membranes were probed with rabbit anti-mouse c-myc polyclonal antibodies N-262 (sc-764) or C-19 (sc-788) diluted 1:2000 in blocking buffer (Genotech) followed by goat-anti rabbit HRP-conjugated antibody (sc-2054). The relative amount of c-myc and actin protein was visualized by ECLplus (Amersham, Piscataway, N.J.) and analyzed on a Kodak 440 Image Station using 1 D Image Analysis software (Kodak, Rochester N.Y.). Membranes were then soaked in stripping buffer (Genotech) for 20 minutes at 25° C. and reprobed with a 1:2000 dilution of goat anti-mouse β-actin polyclonal antibody (sc-1616), which served as a protein loading control, followed by donkey anti-goat HRP-conjugated antibody (sc-2056).
An initial study was performed to determine AVI-4126 levels in the tumor and to evaluate sequence specific inhibition of c-myc protein levels. Tumor bearing mice 24 days post LLC1 transplant were given injections of either saline, AVI-4126 or scrambled control (100 μg/mouse IP). Tumors were excised 4 hours later and evaluated for AVI-4126 and analyzed by immunoblot for c-myc protein, as described below.
Animals were treated as described. Therapeutic efficacy was evaluated based on daily measurement of tumor area (length x width, cm^2) with digital calipers and tumor mass determined at the time of euthanization. Mice in all studies were euthanized by asphyxiation with CO2 on the final day of PMO treatments. Tumors were immediately removed, weighed and approximately 0.25 g tumor tissue was homogenized in 1.0 ml Tissue-PE lysis buffer (Genotech, St. Louis, Mo.) containing protease inhibitor cocktail tablets (Complete™ Mini EDTA-free, Boehringer-Mannheim) which were dissolved in the lysis buffer 30 minutes before tissue homogenization. Lysates were centrifuged at 15,000× g for 15 minutes at 4° C. and 150 μl aliquots of supernatant were combined 1:1 with electrophoresis sample buffer and boiled at 100° C. for 5 minutes.

[2] = set-up: species or system C57BL/6J mice; conditions: mouse, in vivo, ip
Experimental: HPLC detection of AVI-4126 in LLC1 tumor tissue. The presence of AVI-4126 in tumor tissue lysates (prepared 4 hours after a single injection of 100 μg of AVI-4126 into tumor bearing mice) was determined via a 5′-flouresceinyl DNA:AVI-4126 (FDNA:AVI-4126) duplex detection method developed at AVI BioPharma (Corvallis, Oreg.). Briefly, 500 ng of internal standard (10 μl of a […] of 0.025M Tris buffer, pH=8) of a 15mer internal PMO standard complementary to the FDNA probe (5′-GAGGGGCATCGTCGC-3′ (SEQ ID NO: 14)) was added to each tumor tissue lysate. The lysate was combined with 250 μl methanol and mixed thoroughly. The sample was centrifuged 10 minutes at 15,000× g and the supernatant was removed and heated to 70° C. for g 10 minutes. […]
The entire 100 μl sample was then analyzed for the presence of FDNA:AVI-4126 duplex using reverse phase HPLC with fluorescence detection. The sample was injected into a Dionex DNAPac PA-100 column (4×250) using a Varian HPLC pump (model 9010 inert) equipped with a fluorescence detector and Al-200 autosampler (100 μl injector loop volume). […] The pump gradient program was 90% A+10% B (0 min) and 55% A+45% B (20 min.) at a flow rate of 1.5 ml/min with fluorescence detection at a 494 nm (excitation) and 518 nm emission wavelengths. […]

[3] = ICP-MS detection and quantitation of platinum/cisplatin in LLC1 tumor tissue; assay type: in vivo, C57BL/6J mice; conditions: data not shown
Experimental: ICP-MS Detection and Quantitation of platinum/cisplatin. A 200 μL aliquot of tissue lysate (40 mg of LLC1 tumor tissue) was dissolved in 1.33 mL of aqua regia followed by a 10 fold dilution. The samples were then analyzed by ICP-MS technique for the presence of Pt according to the method of Long et al (16) by Anatek Labs (Moscow, ID).

[4] = single injection 100 μg/mouse IP, tumors excised 4 hours later, FIG. 5A

| Compound | Tumor Mass (gm ± STE) [1] [gm] | Tumor Growth Rate (TGR) [1] | % of Saline TGR [1] [%] | also measured |
| --- | --- | --- | --- | --- |
| CC(=O)O[C@H]1C(=O)[C@@]2(C)[C@H]([C@H](OC(=O)c3ccccc3)[C@]3(O)C[C@H](OC(=O)[C@H](O)[C@@H](NC(=O)c4ccccc4)c4ccccc4)C(C)=C1C3(C)C)[C@]1(OC(C)=O)CO[C@@H]1C[C@@H]2O [Taxol, Paclitaxel] | 1.827 ± 0.210 | 0.234 ± 0.023 | 114.7 | – |
| N.N.[Cl][Pt][Cl] [cisplatin, cis-diamminedichloroplatinum] | 0.550 ± 0.081 | 0.101 ± 0.011 | 49.5 | necropsy appearance of tumors ([1]; cisplatin alone, and cisplatin plus co-administered AVI-4126): highly invasive and vascularized; antitumor effect / tumor growth (in words) [1]: significantly lower; effect on c-myc levels in tumor tissue (in words) (c-myc protein): no statistical difference |
| COc1cc([C@@H]2c3cc4c(cc3[C@@H](O[C@@H]3O[C@@H]5CO[C@@H](C)O[C@H]5[C@H](O)[C@H]3O)[C@H]3COC(=O)[C@H]23)OCO4)cc(OC)c1O [etoposide] | 0.970 ± 0.244 | 0.153 ± 0.025 | 75.0 | – |
| AVI-4126: 20 base PMO antisense to c-myc translation start site: ACGTTGAGGGGCATCGTCGC (antisense ACGTTGAGGGGCATCGTCGC; all phosphorodiamidate morpholino (PMO)) | 1.788 ± 0.651 | 0.212 ± 0.031 | 103.9 | antitumor effect / tumor growth (in words) [1]: failed to significantly reduce tumor growth; inhibition of c-myc levels compared to saline control, n-terminal antibody (c-myc protein; band intensity normalized to β-actin, AVI-4126 alone 300 μg/mouse/day IP, FIG. 6A): 74%; inhibition of c-myc levels compared to saline control, c-terminal antibody (c-myc protein; band intensity normalized to β-actin, AVI-4126 alone 300 μg/mouse/day IP, FIG. 6B): 61%; reduction of c-myc levels relative to saline control (c-myc protein; [4]): 77%; reduction of c-myc levels relative to scrambled PMO control (c-myc protein; [4]): 63%; FDNA:AVI-4126 duplex fluorescence peak in tumor tissue lysate [2]: readily detectable; degradation of AVI-4126 in tumor tissue [2]: No evidence of degradation; effect of AVI-4126 administration on platinum levels in tumor tissue [3]: did not effect platinum levels |
| RAD51AS: control PMO, mouse RAD51 sequence: CAAGCTGCATTTGCATAGCCAT (antisense CAAGCTGCATTTGCATAGCCAT; all phosphorodiamidate morpholino (PMO)) | 1.193 ± 0.166 | 0.198 ± 0.017 | 97.1 | – |
| p21AS: control PMO, mouse p21 sequence: CATCACCAGGATTGGACATGG (antisense CATCACCAGGATTGGACATGG; all phosphorodiamidate morpholino (PMO)) | 1.260 ± 0.389 | 0.184 ± 0.030 | 90.2 | – |
| scrambled control PMO: c-myc antisense scramble control PMO: ACTGTGAGGGCGATCGCTGC (ACTGTGAGGGCGATCGCTGC; all phosphorodiamidate morpholino (PMO)) | – | – | – | effect on c-myc levels in tumor tissue (in words) (c-myc protein): no effect |
